Consider two compounds from EP2474542A1 (priority 2010, dated 2012).

Molecules are shown by their SMILES. Where two headings read alike, the source gives them in different places.

A short description of data set [1]: logP determination (HPLC/MS characterisation, HCOOH). It counts as physicochemical.
In the next data set the test system is Phytophthora infestans. The data set is classed as in vivo. As to conditions: preventive, young tomato plants sprayed, 100ppm of active ingredient, evaluated 7 days after the inoculation; 0% = untreated control, 100% = no disease.
Where [2] appears, read: HCOOH, HPLC/MS, read-out: logP(HCOOH).

Turning to `Cn1nnnc1/C(=N\OCc1csc(N=C=O)n1)c1ccccc1` [(Z)-N-[(2-isocyanato-1,3-thiazol-4-yl)methoxy]-1-(1-methyl-1H-tetrazol-5-yl)-1-phenylmethanimine], in data set [1] (setting [2]), the chromatographic logP came to 3.13.

Take `Cn1nnnc1/C(=N\OCc1csc(NC(=O)O/N=C/c2ccccc2)n1)c1ccccc1` [Example 1, ({4-[({[(Z)-(1-methyl-1H-tetrazol-5-yl)(phenyl)methylene]amino}oxy)methyl]-1,3-thiazol-2-yl}amino)({[(E)-phenylmethylene]amino}oxy)methanone]: the chromatographic logP in data set [1] (setting [2]) is 3.39; in data set [1] (Table 1, read-out: log P) it was 3.13. In the data set with Phytophthora infestans, this compound gave an Eff.% of 95%.
